Read-outs that look alike come from different tables or passages of the source.
What was measured:
[1] = 12-week placebo-controlled trials comparing various doses; cited from earlier work
[2] = Phase 1 single-dose study, plasma PK of solriamfetol by level of renal function; type: in vivo, human; conditions: for AUCt, percent ratio (90% confidence interval) of geometric mean relative to Group 1 / AUC∞, percent ratio (90% confidence interval) of geometric mean relative to Group 1 / Cmax, percent ratio (90% confidence interval) of geometric mean relative to Group 1 / AUC(0-t) / AUC(0-inf) / Cmax / Vd/F / Tmax / half-life: single 75-mg dose; for AUC(0-t) / AUC(0-inf) / Cmax / Vd/F / Tmax / half-life: both sexes, human, plasma, oral, 75 mg; for Vd/F: read-out: Vd/F, mean ± SD (%CV); for Tmax: read-out: tmax, median (min, max); for half-life: read-out: t½, mean ± SD (%CV) (converted)
Procedure: In healthy subjects with normal renal function, solriamfetol HCl is renally excreted ~90% unchanged within 48 hours of administration. Thus, renal impairment, as well as hemodialysis in individuals with end-stage renal disease (ESRD), could affect the PK of solriamfetol HCl. To ascertain the precise impact of renal impairment and hemodialysis on pharmacokinetics and safety of solriamfetol RCl, a Phase 1, parallel-group, open-label, single-dose study was conducted at 2 U.S. sites. The protocol was approved by the IntegReview Institutional Review Board (Austin, Texas), and the study was conducted in compliance with the protocol, the Guideline for Good Clinical Practice E6; the US Code of Federal Regulations pertaining to conduct and reporting of clinical studies; the Clinical Trials Directive of the European Medicines Agency (Directive 2001/20/EC); and the Declaration of Helsinki. Written informed consent was obtained from each subject before enrollment in the study and before performance of any study-related procedure. See, also, Zomorodi K, Chen D, Lee L, Lasseter K, Marbury T. An Open-Label, Single-Dose, Phase 1 Study of the Pharmacokinetics and Safety of JZP-110 in Subjects With Normal or Impaired Renal Function and With End-Stage Renal Disease Requiring Hemodialysis [abstract]. Sleep. 2017;40 (suppl):A382-383.
Eligible participants were men and non-pregnant, non-lactating women between the ages of 18 and 80 years, with a body mass index (BMI) ≤ 35 kg/m^2. Women of childbearing potential were required to have used a medically accepted method of birth control for at least 2 months prior to the first dose of study drug, with continued use throughout the study period and for 30 days after study completion.
Eligible participants were assigned to 1 of 5 groups according to renal disease status as measured by the estimated glomerular filtration rate (eGFR) on the day prior to dosing, calculated using the Modification in Diet in Renal Disease equation. Group 1 consisted of healthy participants with normal renal function (eGFR ≥ 90 mL/min/1.73 m^2) and served as the control group. Groups 2, 3, and 4 had mild, moderate, and severe renal impairment based on eGFRs of 60-89, 30-59, and < 30 mL/min/1.73 m^2, respectively. Group 5 consisted of participants with ESRD who required ≥ 3 hemodialysis treatments per week for the preceding 3 months. […] Group 1 was enrolled last to facilitate matching the mean age, BMI, and sex distribution of Groups 2-5.
Groups 1-4 received one dose of solriamfetol HCl (89.3 mg; equivalent to 75-mg solriamfetol) on day 1; Group 5 received one dose equivalent to 75-mg dose on day 1 followed by 4-hour hemodialysis (designated Group 5.2), and one dose equivalent to 75-mg solriamfetol on day 8 without hemodialysis (designated Group 5.1). All doses were administered on an empty stomach following an overnight fast except for participants in Group 5, who received a standardized snack on day 7 and breakfast early on day 8 before starting an 8-hour fast. Participants remained fasting for 4 hours after administration, with water allowed except for 1 hour before and after dosing.
Serial blood samples of approximately 4 mL were collected within 30 minutes prior to dosing and at 0.5, 1, 1.5, 2, 2.5, 3, 4, 6, 8, 10, 12, 24, 36, and 48 hours post-dose in Groups 1-3, with continued sampling at 60 and 72 hours post-dose in Groups 4 and 5. All blood samples were collected into labeled K2EDTA tubes by direct venipuncture or indwelling catheter and kept on ice until the samples were centrifuged within 30 minutes of collection at approximately 2500 rpm (1315 × g) at 4° C. for 10 minutes. The plasma was transferred into polypropylene tubes for freezing and storage at -70° C. until analysis.
Bioanalytical analyses were performed by a central laboratory (KCAS, LLC, Shawnee, Kansas) using validated proprietary methods that included extraction/derivatization and liquid chromatography-tandem mass spectrometry (LC-MS/MS). […]

[3] = Group 3 moderate renal impairment
[4] = Group 4 severe renal impairment
[5] = Group 5.1 ESRD without hemodialysis
[6] = Group 5.2 ESRD with hemodialysis
[7] = Group 5.1 ESRD without hemodialysis, n=3
[8] = Group 5.2 ESRD with hemodialysis, n=6

**Q.** Which results are given for `NC(=O)OC[C@H](N)Cc1ccccc1` [solriamfetol, [R]-2-amino-3-phenylpropylcarbamate]?
**A.** adverse effects (headache, nausea, decreased appetite, anxiety and others), dependence on dose [1]: dose-dependent; Cmax, lower relative to normal renal function ([2]; ESRD requiring hemodialysis): ≤ 19%; overall exposure, fold increase relative to normal renal function ([2]; ESRD requiring hemodialysis): ≥ 4 fold; t½, fold longer relative to normal renal function ([2]; ESRD requiring hemodialysis): ≥ 13 fold; Cmax, higher versus Group 1 ([2]; Group 2 mild renal impairment): approximately 6%; total exposure (AUC∞), higher relative to Group 1 ([2]; Group 2 mild renal impairment): 53%; AUCt, percent ratio (90% confidence interval) of geometric mean relative to Group 1 ([2]; Group 2 mild renal impairment): 158.3 (97.5, 256.9) %; AUC∞, percent ratio (90% confidence interval) of geometric mean relative to Group 1 ([2]; Group 2 mild renal impairment): 152.9 (92.9, 251.7) %; Cmax, percent ratio (90% confidence interval) of geometric mean relative to Group 1 ([2]; Group 2 mild renal impairment): 105.9 (80.6, 139.0) %; Cmax, higher versus Group 1 [2, 3]: ~4%; total exposure (AUC∞), higher relative to Group 1 [2, 3]: 129%; AUCt, percent ratio (90% confidence interval) of geometric mean relative to Group 1 [2, 3]: 219.2 (133.7, 359.6) %; AUC∞, percent ratio (90% confidence interval) of geometric mean relative to Group 1 [2, 3]: 229.2 (135.6, 387.4) %; Cmax, percent ratio (90% confidence interval) of geometric mean relative to Group 1 [2, 3]: 104.3 (78.4, 138.9) %; Cmax, higher versus Group 1 [2, 4]: ~11%; total exposure (AUC∞), higher relative to Group 1 [2, 4]: 339%; AUCt, percent ratio (90% confidence interval) of geometric mean relative to Group 1 [2, 4]: 380.4 (208.4, 694.4) %; AUC∞, percent ratio (90% confidence interval) of geometric mean relative to Group 1 [2, 4]: 438.6 (217.3, 885.3) %; Cmax, percent ratio (90% confidence interval) of geometric mean relative to Group 1 [2, 4]: 110.5 (81.1, 150.6) %; overall exposure (AUCt), fold higher relative to Group 1 ([2]; Group 5.1 ESRD without dialysis on day 8): approximately 5 fold; Cmax, lower versus Group 1 [2, 5]: approximately 3%; exposure, higher versus Group 1 [2, 5]: approximately 518%; AUCt, percent ratio (90% confidence interval) of geometric mean relative to Group 1 [2, 5]: 617.8 (385.3, 990.8) %; AUC∞, percent ratio (90% confidence interval) of geometric mean relative to Group 1 [2, 5]: 1290.6 (542.78, 3068.5) %; Cmax, percent ratio (90% confidence interval) of geometric mean relative to Group 1 [2, 5]: 97.2 (76.1, 124.1) %; overall exposure (AUCt), fold higher relative to Group 1 ([2]; Group 5.2 ESRD with dialysis on day 1): about 4 fold; Cmax, lower versus Group 1 [2, 6]: ~19%; exposure, higher versus Group 1 [2, 6]: ~357%; AUCt, percent ratio (90% confidence interval) of geometric mean relative to Group 1 [2, 6]: 457.2 (296.6, 704.9) %; AUC∞, percent ratio (90% confidence interval) of geometric mean relative to Group 1 [2, 6]: 1496.5 (748.7, 2991.2) %; Cmax, percent ratio (90% confidence interval) of geometric mean relative to Group 1 [2, 6]: 80.9 (63.4,103.1) %; AUC(0-t) ([2]; Group 1 normal renal function, over 48 h, read-out: AUCt, mean ± SD (%CV)): 4850 ± 3450 ng·h/mL; AUC(0-t) ([2]; Group 1 normal renal function, over 48 hours, read-out: AUCt, geometric LS mean (converted)): 4090 ng·h/mL; AUC(0-inf) ([2]; Group 1 normal renal function, read-out: AUC∞, geometric LS mean): 4360 ng·h/mL; AUC(0-inf) ([2]; Group 1 normal renal function, read-out: AUC∞, mean ± SD (%CV)): 5270 ± 4100 ng·h/mL; Cmax ([2]; Group 1 normal renal function, read-out: Cmax, geometric LS mean): 482 ng/mL; Cmax ([2]; Group 1 normal renal function, read-out: Cmax, mean ± SD (%CV)): 499 ng/mL; Vd/F ([2]; Group 1 normal renal function): 164 L; Tmax ([2]; Group 1 normal renal function): 1.3 h; half-life ([2]; Group 1 normal renal function): 7.6 ± 5.1 h; AUC(0-t) ([2]; Group 2 mild renal impairment, over 48 h, read-out: AUCt, mean ± SD (%CV)): 6610 ng·h/mL; AUC(0-t) ([2]; Group 2 mild renal impairment, over 48 hours, read-out: AUCt, geometric LS mean (converted)): 6470 ng·h/mL; AUC(0-inf) ([2]; Group 2 mild renal impairment, read-out: AUC∞, geometric LS mean): 6670 ng·h/mL; AUC(0-inf) ([2]; Group 2 mild renal impairment, read-out: AUC∞, mean ± SD (%CV)): 6840 ng·h/mL; Cmax ([2]; Group 2 mild renal impairment, read-out: Cmax, geometric LS mean): 510 ng/mL; Cmax ([2]; Group 2 mild renal impairment, read-out: Cmax, mean ± SD (%CV)): 522 ng/mL; Vd/F ([2]; Group 2 mild renal impairment): 147 L; Tmax ([2]; Group 2 mild renal impairment): 1.5 h; half-life ([2]; Group 2 mild renal impairment): 9.1 ± 1.6 h; AUC(0-t) ([2]; Group 3 moderate renal impairment, over 48 h, read-out: AUCt, mean ± SD (%CV)): 9230 ng·h/mL; AUC(0-t) ([2]; Group 3 moderate renal impairment, over 48 hours, read-out: AUCt, geometric LS mean (converted)): 8960 ng·h/mL; AUC(0-inf) ([2]; Group 3 moderate renal impairment, read-out: AUC∞, geometric LS mean): 10000 ng·h/mL; AUC(0-inf) ([2]; Group 3 moderate renal impairment, read-out: AUC∞, mean ± SD (%CV)): 10500 ng·h/mL; Cmax ([2]; Group 3 moderate renal impairment, read-out: Cmax, geometric LS mean): 503 ng/mL; Cmax ([2]; Group 3 moderate renal impairment, read-out: Cmax, mean ± SD (%CV)): 517 ng/mL; Vd/F [2, 3]: 152 L; Tmax [2, 3]: 1.5 h; half-life [2, 3]: 14.3 ± 4.5 h; AUC(0-t) ([2]; Group 4 severe renal impairment, over 72 hours, read-out: AUCt, geometric LS mean (converted)): 15500 ng·h/mL; AUC(0-inf) ([2]; Group 4 severe renal impairment, read-out: AUC∞, geometric LS mean): 19100 ng·h/mL; AUC(0-inf) ([2]; Group 4 severe renal impairment, read-out: AUC∞, mean ± SD (%CV)): 23600 ng·h/mL; Cmax ([2]; Group 4 severe renal impairment, read-out: Cmax, geometric LS mean): 533 ng/mL; Cmax ([2]; Group 4 severe renal impairment, read-out: Cmax, mean ± SD (%CV)): 553 ng/mL; Vd/F [2, 4]: 157 L; Tmax [2, 4]: 2 h; half-life [2, 4]: 29.6 ± 14.4 h; AUC(0-inf) ([2]; Group 5.1 ESRD without hemodialysis, n=3, read-out: AUC∞, geometric LS mean): 56300 ng·h/mL; Vd/F [2, 7]: 154 L; half-life [2, 7]: 100 h; AUC(0-t) ([2]; Group 5.1 ESRD without hemodialysis, over 72 hours, read-out: AUCt, geometric LS mean (converted)): 25300 ng·h/mL; Cmax ([2]; Group 5.1 ESRD without hemodialysis, read-out: Cmax, geometric LS mean): 469 ng/mL; Cmax ([2]; Group 5.1 ESRD without hemodialysis, read-out: Cmax, mean ± SD (%CV)): 474 ng/mL; Tmax [2, 5]: 3.3 h; AUC(0-inf) ([2]; Group 5.2 ESRD with hemodialysis, n=6, read-out: AUC∞, geometric LS mean): 65300 ng·h/mL; Vd/F [2, 8]: 231 L; half-life [2, 8]: 165 h; AUC(0-t) ([2]; Group 5.2 ESRD with hemodialysis, over 72 hours, read-out: AUCt, geometric LS mean (converted)): 18700 ng·h/mL; Cmax ([2]; Group 5.2 ESRD with hemodialysis, read-out: Cmax, geometric LS mean): 390 ng/mL; Cmax ([2]; Group 5.2 ESRD with hemodialysis, read-out: Cmax, mean ± SD (%CV)): 396 ng/mL; Tmax [2, 6]: 1.5 h; AUC0-inf, fold compared with normal renal function ([2]; mild renal impairment): ~1.53 fold; t½, fold increase compared with normal renal function ([2]; mild renal impairment): approximately 1.2 fold; AUC0-inf, fold compared with normal renal function ([2]; moderate renal impairment): ~2.29 fold; t½, fold increase compared with normal renal function ([2]; moderate renal impairment): ~1.9 fold; AUC0-inf, fold compared with normal renal function ([2]; severe renal impairment): ~4.39 fold; t½, fold increase compared with normal renal function ([2]; severe renal impairment): ~3.9 fold

Source: US20230293475A1, “METHODS OF PROVIDING SO[…] TO SUBJECTS WITH IMPAIRED RENAL FUNCTION” (Axsome Malta Ltd., priority 2020, published 2023)
